Patent US20250049090A1, “A NUTRITIONAL SUPPLEMENT FOR IMPROVED GUT HEALTH” (Haleon US Holdings LLC, priority 2021, published 2025)

Legend:
[1] = system: human gut microbiota; test: In vitro gut model batch culture fermentation, organic acid production by gas chromatography; type: cell-based; details: 'except' = not significantly elevated
Protocol: (§1) In vitro gut model batch culture fermentations were run for 72 hours. Samples were collected for bacterial enumeration and organic acid production through fluorescent in situ hybridisation combined with flow cytometry and gas chromatography, respectively. Overall, the main findings were that the ZnC supplementation combined with WD increased in Bifidobacterium spp., and Clostridium histolyticum group but this finding was not shown in the vessels consisting of the ZnC components only. […] Optimising the dose and substrate availability is important to ensure homeostasis and prevent potential pathogenic bacterial growth. […]
(§2) A 750 μl sample was collected from each vessel at timepoints 0, 8, 24, 48 and 72 hours. […] The subsequent pellet was used for bacterial enumeration through fluorescence in situ hybridisation flow-cytometry (FISH-FCM) and 500 μl of supernatant used to assess organic acid production via gas chromatography. […]
(§3) All statistical results were analysed in Prism 8 version 8.4.0 (GraphPad Prism 8, San Diego, California, USA). The FISH-FCM and organic acid production were analysed using two-way mixed ANOVA to compare different test substrates and time points. […]

[2] = healthy volunteers under high stress or when diarrhoea was induced; cited from earlier work
[3] = ZnC supplementation 150 mg/day for 1 week; cited from earlier work
[4] = system: total bacteria; test: In vitro gut model batch culture fermentation, FISH-FCM enumeration of total bacteria (Eub); type: cell-based, human faecal bacteria; details: until 48 h, WD experiment; 'except' = not elevated
Protocol: as §1, §2, §3

In the case of Zinc carnosine [ZnC], the “propionate compared to baseline” value ([1]; 24, 48 and 72 h, WD experiment) is listed as “except”, the “acetate compared to baseline” value ([1]; 72 h, PHGG experiment) is listed as “except” and the intestinal barrier function [2] is listed as “maintained or improved”. The “UC clinical outcomes and remission” value [3] was “improve” and the “total bacteria counts elevated” value [4] was “except”.
